Patent US20060135522A1, “Tricyclic delta-opioid modulators” (priority 2004, published 2006)
Read-outs that look alike come from different tables or passages of the source.

Assays:
delta opioid receptor = target: T1, delta opioid receptor (Rattus norvegicus, UniProt P33533); assay: Rat Brain Delta Opioid Receptor Binding Assay
T1 construct: from tissue; host or cells: forebrain of male Wistar rats (particulate membrane preparation)
Procedure: Procedure: Male, Wistar rats (150-250 g, VAF, Charles River, Kingston, N.Y.) were killed by CO2, and their brains were removed and placed immediately in ice cold Tris HCl buffer (50 mM, pH 7.4). The forebrains were separated from the remainder of the brain by a coronal transection, beginning dorsally at the colliculi and passing ventrally through the midbrain-pontine junction. After dissection, the forebrains were homogenized in Tris buffer in a Teflon®-glass homogenizer. The homogenate was diluted to a concentration of 1 g of forebrain tissue per 80 mL Tris and centrifuged at 39,000×g for 10 min. The pellet was resuspended in the same volume of Tris buffer containing 5 mM MgCl2 with several brief pulses from a Polytron homogenizer. This particulate preparation was used for the delta opioid binding assays. Following incubation with the delta selective peptide ligand ˜4 nM [^3H]DPDPE or 0.15 nM [^3H]naltrindole at 25° C. for 2.5 h in a 96-well plate with total volume of […], the plate contents were filtered through Wallac filtermat B sheets on a Tomtec 96-well harvester. The filters were rinsed three times with 2 mL of 10 mM HEPES (pH 7.4), and dried in a 650 W microwave oven for 1.75 min twice. To each sample area 2×50 μL of Betaplate Scint scintillation fluid (LKB) was added and the radioactivity was quantified on a LKB (Wallac) 1205 BetaPlate liquid scintillation counter.
(§1) Analysis: The data from the scintillation counter was used to calculate either the % inhibition compared to control binding (when only a single concentration of test compound was evaluated) or a Ki value (when a range of concentrations was tested). Percent inhibition was calculated as: [(total dpm-test compound dpm)/(total dpm-nonspecific dpm)]*100. Kd and Ki values were calculated using GraphPad PRISM data analysis program.

mu opioid receptor = target: T2, mu opioid receptor (Rattus norvegicus, UniProt P33535); assay: Rat Brain Mu Opioid Receptor Binding Assay
T2 construct: from tissue; host or cells: forebrain of male Wistar rats (particulate membrane preparation)
Procedure: Procedure: Male, Wistar rats (150-250 g, VAF, Charles River, Kingston, N.Y.) were killed by CO2, and their brains were removed and placed immediately in ice cold Tris HCl buffer (50 mM, pH 7.4). The forebrains were separated from the remainder of the brain by a coronal transection, beginning dorsally at the colliculi and passing ventrally through the midbrain-pontine junction. After dissection, the forebrains were homogenized in Tris buffer in a Teflon®-glass homogenizer. The homogenate was diluted to a concentration of 1 g of forebrain tissue per 80 mL Tris and centrifuged at 39,000×g for 10 min. The pellet was resuspended in the same volume of Tris buffer containing 5 mM MgCl2 with several brief pulses from a Polytron homogenizer. This particulate preparation was used for the mu opioid binding assays.
as §1

[1] = target: T3, delta opioid receptor (NG108-15 cell membranes) (Mus musculus, UniProt P32300); assay: [35S]GTPγS Binding Assay in NG108-15 Cell Membranes (Delta Opioid); type: biochemical
T3 construct: NG108-15 cell membranes were purchased from Applied Cell Sciences (Rockville, Md.); host or cells: NG108-15 cell membranes (purchased)
Procedure: Methods: NG108-15 cell membranes were purchased from Applied Cell Sciences (Rockville, Md.). 8 mg/mL of membrane protein was suspended in 10 mM TRIS-HCl pH 7.2, 2 mM EDTA, 10% sucrose. Membranes were maintained at 4-8° C. A 1 mL volume of membranes was added into 10 mL cold binding assay buffer. The assay buffer contained 50 mM Tris, pH 7.6, 5 mM MgCl2, 100 mM NaCl, 1 mM DTT and 1 mM EGTA. The membrane suspension was homogenized twice with a Polytron, and centrifuged at 3000 rpm for 10 min. The supernatant was then centrifuged at 18,000 rpm for 20 min. Ten mL assay buffer was added into the pellet containing tube. The pellet and buffer were mixed with a Polytron.
Incubation procedure: The pellet membranes (75 μg/mL) were preincubated with SPA (10 mg/mL) at 25° C. for 45 min in the assay buffer. […] GTPγS in the same Tris buffer containing 100 μM GDP in a total volume of 200 μL. Increasing concentrations of receptor agonists were used to stimulate [^35S]-GTP[…]S binding. The basal binding was tested in the absence of agonists and non-specific binding was tested in the presence of 10 μM unlabeled GTPγS. The data were analyzed on a Packard Top Count.
% of Basal=(stimulated−non specific)*100/(basal−non specific).
EC50 value values were calculated using GraphPad Prism.

[2] = rat forebrain membranes, [3H]DAMGO, 25° C., 2.5 h, read-out: mu (Ki)
[3] = NG108-15 cell membranes, stimulation of [35S]GTPγS binding, read-out: delta GTPγS EC50
[4] = rat forebrain membranes, [3H]DPDPE or [3H]naltrindole, 25° C., 2.5 h, read-out: delta (Ki)

T3 sequence (P32300 whole entry): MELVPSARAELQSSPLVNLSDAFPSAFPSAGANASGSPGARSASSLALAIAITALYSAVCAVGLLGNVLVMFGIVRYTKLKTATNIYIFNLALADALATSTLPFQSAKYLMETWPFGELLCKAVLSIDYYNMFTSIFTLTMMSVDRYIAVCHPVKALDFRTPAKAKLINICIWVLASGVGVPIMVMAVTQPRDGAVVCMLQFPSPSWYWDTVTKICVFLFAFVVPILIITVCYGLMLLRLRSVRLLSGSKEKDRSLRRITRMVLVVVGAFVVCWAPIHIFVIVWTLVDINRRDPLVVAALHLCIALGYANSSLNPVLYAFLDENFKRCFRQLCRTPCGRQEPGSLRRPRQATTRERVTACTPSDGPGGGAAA
T1 sequence (P33533 whole entry): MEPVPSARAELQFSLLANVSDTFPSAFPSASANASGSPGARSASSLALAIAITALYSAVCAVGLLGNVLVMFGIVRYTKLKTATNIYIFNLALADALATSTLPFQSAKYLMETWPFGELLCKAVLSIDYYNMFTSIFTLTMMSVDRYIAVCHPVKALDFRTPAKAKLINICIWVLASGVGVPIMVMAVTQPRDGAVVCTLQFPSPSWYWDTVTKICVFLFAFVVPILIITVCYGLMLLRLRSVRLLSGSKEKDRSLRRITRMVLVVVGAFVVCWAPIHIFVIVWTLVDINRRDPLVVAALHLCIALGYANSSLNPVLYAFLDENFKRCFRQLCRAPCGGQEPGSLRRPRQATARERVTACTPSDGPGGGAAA
T2 sequence (P33535 whole entry): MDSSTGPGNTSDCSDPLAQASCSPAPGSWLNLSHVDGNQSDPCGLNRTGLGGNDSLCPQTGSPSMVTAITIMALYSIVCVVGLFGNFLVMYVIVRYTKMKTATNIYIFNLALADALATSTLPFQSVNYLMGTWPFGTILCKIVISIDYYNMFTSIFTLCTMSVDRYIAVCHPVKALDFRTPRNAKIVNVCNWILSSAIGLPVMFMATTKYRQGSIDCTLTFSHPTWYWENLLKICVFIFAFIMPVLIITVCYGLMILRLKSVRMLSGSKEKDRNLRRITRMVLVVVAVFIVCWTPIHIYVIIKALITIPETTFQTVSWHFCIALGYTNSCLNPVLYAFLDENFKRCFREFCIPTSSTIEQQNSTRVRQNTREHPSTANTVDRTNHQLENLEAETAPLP

| Structure (SMILES) | Ki (delta opioid receptor) | Ki (mu opioid receptor; [2]) | Ki (mu opioid receptor) | Ki (delta opioid receptor; [4]) | further results |
| --- | --- | --- | --- | --- | --- |
| CCN(CC)C(=O)c1cccc(-c2ccc3c(c2)Oc2c(O)cccc2C3C2CCNCC2)c1 (centres unmarked) [3j, N,N-Diethyl-3-(5-hydroxy-9-piperidin-4-yl-9H-xanthen-3-yl)-benzamide] | 37.8 nM | 535 nM | – | – | EC50 [1, 3]: 342 nM |
| CCN(CC)C(=O)c1ccc2c(c1)Oc1c(O)cccc1C2C1CCNCC1 (centres unmarked) [7c, 5-Hydroxy-9-piperidin-4-yl-9H-xanthene-3-carboxylic acid diethylamide] | 2 nM | – | 4230 nM | – | EC50 [1]: 18.7 nM; delta GTPγS Rel Eff. ([1]; NG108-15 cell membranes, relative efficacy): 0.51 |
| CCN(CC)C(=O)c1ccc2c(c1)Oc1c(Cl)cccc1C2C1CCNCC1 (centres unmarked) [6k, 5-Chloro-9-piperidin-4-yl-9H-xanthene-3-carboxylic acid diethylamide] | – | 5700 nM | – | 274 nM | – |
| CC(=O)Nc1ccccc1-c1ccc2c(c1)Oc1c(O)cccc1C2C1CCNCC1 (centres unmarked) [4e, N-[2-(5-Hydroxy-9-piperidin-4-yl-9H-xanthen-3-yl)-phenyl]-acetamide] | 38.1 nM | 289 nM | – | – | – |
| COc1cccc2c1Oc1cc(-c3cccnc3)ccc1C2C1CCNCC1 (centres unmarked) [7b, 3-(5-Methoxy-9-piperidin-4-yl-9H-xanthen-3-yl)-pyridine] | – | > 10000 nM | – | 318 nM | – |
| CCN(CC)C(=N)c1ccc2c(c1)Oc1ccccc1C2C1CCNCC1 (centres unmarked) [1p, N,N-Diethyl-9-piperidin-4-yl-9H-xanthene-3-carboxamidine] | 51.1 nM | – | > 10000 nM | – | – |
| CCN(CC)C(=O)c1ccc2c(c1)Oc1ccccc1C2C1CCN(Cc2ccccn2)CC1 (centres unmarked) [11a, 9-(1-Pyridin-2-ylmethyl-piperidin-4-yl)-9H-xanthene-3-carboxylic acid diethylamide] | 2700 nM | – | 15100 nM | – | – |
| CCN(CC)C(=O)c1ccc2c(c1)Oc1c(OC)cccc1C2C1CCNCC1 (centres unmarked) [6c, 5-Methoxy-9-piperidin-4-yl-9H-xanthene-3-carboxylic acid diethylamide] | – | > 10000 nM | – | 277 nM | – |
| c1ccc(CN2CCC(C3c4ccccc4Oc4cc(-c5cccnc5)ccc43)CC2)cc1 (centres unmarked) [7f, 3-[9-(1-Benzyl-piperidin-4-yl)-9H-xanthen-3-yl]-pyridine] | 783 nM | – | 3120 nM | – | – |
| CCN(CC)C(=O)c1ccc2c(c1)Oc1ccccc1C2C1CCN(CC2CC2)CC1 (centres unmarked) [14a, 9-(1-Cyclopropylmethyl-piperidin-4-yl)-9H-xanthene-3-carboxylic acid diethylamide] | – | 6990 nM | – | 1080 nM | – |
| CCNC(=O)c1ccc2c(c1)Oc1c(O)cccc1C2C1CCNCC1 (centres unmarked) [5d, 5-Hydroxy-9-piperidin-4-yl-9H-xanthene-3-carboxylic acid ethylamide] | – | 876 nM | – | 209 nM | – |
| CC(=O)Nc1ccccc1-c1ccc2c(c1)Oc1ccccc1C2C1CCN(CCc2ccccc2)CC1 (centres unmarked) [5g, N-{2-[9-(1-Phenethyl-piperidin-4-yl)-9H-xanthen-3-yl]-phenyl}-acetamide] | – | 995 nM | – | 4570 nM | – |
| C=CCN1CCC(C2c3ccccc3Oc3cc(-c4ccccc4NC(C)=O)ccc32)CC1 (centres unmarked) [6g, N-{2-[9-(1-Allyl-piperidin-4-yl)-9H-xanthen-3-yl]-phenyl}-acetamide] | – | 9630 nM | – | 1090 nM | – |
| c1ccc2c(c1)Oc1cc(-c3nnn[nH]3)ccc1C2C1CCN(Cc2ccoc2)CC1 (centres unmarked) [4l, 1-Furan-3-ylmethyl-4-[3-(1H-tetrazol-5-yl)-9H-xanthen-9-yl]-piperidine] | – | 6320 nM | – | 498 nM | – |
| Oc1cccc2c1Oc1cc(-c3cccnc3)ccc1C2C1CCNCC1 (centres unmarked) [3i, 9-Piperidin-4-yl-6-pyridin-3-yl-9H-xanthen-4-ol] | 242 nM | – | > 10000 nM | – | – |
| CCN(CC)C(=O)c1ccc2c(c1)Oc1ccccc1C2C1CCN(Cc2ccccc2)CC1 (centres unmarked) [10a, 9-(1-Benzyl-piperidin-4-yl)-9H-xanthene-3-carboxylic acid diethylamide] | 75 nM | – | 5370 nM | – | – |
| c1cncc(-c2ccc3c(c2)Oc2ccccc2C3C2CCNCC2)c1 (centres unmarked) [4f, 3-(9-Piperidin-4-yl-9H-xanthen-3-yl)-pyridine] | – | 1000 nM | – | 161 nM | – |
| CCN(CC)C(=O)c1ccc2c(c1)Oc1ccccc1C2C1CCNCC1 (centres unmarked) [8a, 9-Piperidin-4-yl-9H-xanthene-3-carboxylic acid diethylamide] | 15 nM | 8790 nM | – | – | EC50 [1, 3]: 266 nM |
| CC(=O)Nc1ccccc1-c1ccc2c(c1)Oc1ccccc1C2C1CCN(Cc2ccoc2)CC1 (centres unmarked) [3g, N-{2-[9-(1-Furan-3-ylmethyl-piperidin-4-yl)-9H-xanthen-3-yl]-phenyl}-acetamide] | 100 nM | 4440 nM | – | – | – |
| c1cncc(-c2ccc3c(c2)Oc2ccccc2C3C2CCN(Cc3ccoc3)CC2)c1 (centres unmarked) [5f, 3-[9-(1-Furan-3-ylmethyl-piperidin-4-yl)-9H-xanthen-3-yl]-pyridine] | – | 3160 nM | – | 303 nM | – |
